This is an account of results in ChEMBL document CHEMBL5143551, “Synthesis of sp3-rich chiral bicyclo[3.3.1]nonanes for chemical space expansion and study of biological activities” (Bioorg Med Chem, 2022).

pIC50: −log10 of the molar value. The source made the active and inactive calls. The calls are words filed in the database; no cut-off is given here. Some results are limits rather than exact numbers.

Assay [1] is described as follows: Inhibition of HIF-1 transcriptional activity in human HeLa cells transfected with hypoxia response element-dependent luciferase reporter gene under hypoxic conditions. The format is cell-based. On the technique in general: A reporter such as luciferase makes a cellular process visible.
Assay [2] deals with HeLa. The assay is described as follows: Growth inhibition of human HeLa cells by MTT assay. The format is functional, cell-based. Background: Formazan colour is commonly taken as a measure of viable cells.
The subject of assay [3] is HeLa. The assay is described as follows: Inhibition of HIF-1-alpha mRNA expression in human HeLa cells under hypoxia conditions at 100 uM by qPCR analysis. The format is functional, cell-based. For orientation: Real-time PCR tracks product formation cycle by cycle.
Assay [4] concerns HeLa. The assay is described as follows: Inhibition of HIF-1 transcriptional signaling in human HeLa cells assessed as reduction in CA9 protein expression at 100 uM under hypoxia conditions by Western blot analysis. The format is cell-based.
The subject of assay [5] is HeLa. The assay is described as follows: Inhibition of HIF-1-alpha protein expression in human HeLa cells at 100 uM by Western blot analysis. The format is functional, cell-based.

`CC(C)CN[C@@H]1C2C[C@](OC(=O)Cc3ccccc3)(CC[C@H]2OC(=O)CC(C)C)[C@H]2O[C@@H]12` (stereo in doubt; 16f) [listing 1 of 2 here]: the pIC50 was 4.72 in assay [1] (hela) and 4.12 with HeLa [2] (hela).

`CC(C)CN[C@@H]1C2C[C@](OC(=O)Cc3ccccc3)(CC[C@H]2OC(=O)CC(C)C)[C@H]2O[C@@H]12` (stereo in doubt; 16f) [listing 2 of 2 here]: the inhibition entry with HeLa [3], in the assay on HeLa [4] and in the assay with HeLa [5] was “Active” throughout.

For `CC(C)CC(=O)O[C@@H]1CC[C@@]2(OC(=O)CC(C)C)CC1[C@@H](NCc1ccccc1)[C@@H]1O[C@@H]12`, the pIC50 in assay [1] (Homo sapiens, HeLa) was 4.61; in the assay with HeLa [2] (Homo sapiens, HeLa), 5.03.

As for `CC(C)CN[C@@H]1C2C[C@](OC(=O)CC(C)C)(CC[C@H]2OC(=O)Cc2ccccc2)[C@H]2O[C@@H]12`, the pIC50 was 4.69 in assay [1] (Homo sapiens, HeLa) and 4.05 in the assay on HeLa [2] (Homo sapiens, HeLa). Moreover, the inhibition result in the assay on HeLa [4] and in the assay on HeLa [5] was “Active” each time.

Take `CC(C)CC(=O)O[C@]12CC[C@@H](OC(=O)Cc3ccccc3)C(C1)[C@@H](NCc1ccccc1)[C@@H]1O[C@@H]12` (mixture of isomers): the pIC50 in assay [1] (Homo sapiens, HeLa) was 4.76; with HeLa [2] (Homo sapiens, HeLa), 5.46.

Take `CC(C)CN[C@@H]1C2C[C@](OC(=O)CC(C)C)(CC[C@H]2OC(=O)CC(C)C)[C@H]2O[C@@H]12`: the pIC50 in assay [1] (Homo sapiens, HeLa) was 4.66; in the assay on HeLa [2] (Homo sapiens, HeLa), 4.10. For the same compound, the inhibition entry in the assay with HeLa [4] and in the assay on HeLa [5] was “Active” throughout.

As to `O=C(Cc1ccccc1)O[C@@H]1CC[C@@]2(OC(=O)Cc3ccccc3)CC1[C@@H](NCc1ccccc1)[C@@H]1O[C@@H]12` (mixture of isomers), the pIC50 was 4.71 in assay [1] (Homo sapiens, HeLa) and 4.85 in the assay on HeLa [2] (Homo sapiens, HeLa).

With `CC(C)CN[C@@H]1C2C[C@](OC(=O)Cc3ccccc3)(CC[C@H]2OC(=O)CC(C)C)[C@H]2O[C@@H]12` (stereo in doubt), the figures for the pIC50 (in assay [1] (hela); with HeLa [2] (hela)) were 4.33 and 4.49, respectively.

As to `CC(C)CN[C@@H]1C2C[C@](OC(=O)Cc3ccccc3)(CC[C@H]2OC(=O)Cc2ccccc2)[C@H]2O[C@@H]12`, the negative-log IC50 (pIC50) in assay [1] (Homo sapiens, HeLa) was 4.50; in the assay on HeLa [2] (Homo sapiens, HeLa), < 4.00.

Regarding `CC(C)CC(=O)O[C@@H]1CC[C@@]2(OC(=O)Cc3ccccc3)CC1[C@@H](NCc1ccccc1)[C@@H]1O[C@@H]12`, the pIC50 is 4.51 in assay [1] (Homo sapiens, HeLa) and 4.40 in the assay with HeLa [2] (Homo sapiens, HeLa).

As a reminder, the pIC50 is the negative decadic logarithm of the IC50, by convention in mol/L.
